For this experiment, the target named is T1, human factor Xa (Homo sapiens, UniProt P00742).
T1 construct: Purified human factor Xa; purchased Alexis Corporation, Nottingham, UK
The experiment can be described thus: Enzyme inhibition assay, chromogenic substrate pefachrome-FXA. It counts as biochemical. As to conditions: room temperature, 0.1M phosphate buffer, pH7.4.

The structures appear in SMILES notation.

T1 sequence (P00742 235-488 limits assumed): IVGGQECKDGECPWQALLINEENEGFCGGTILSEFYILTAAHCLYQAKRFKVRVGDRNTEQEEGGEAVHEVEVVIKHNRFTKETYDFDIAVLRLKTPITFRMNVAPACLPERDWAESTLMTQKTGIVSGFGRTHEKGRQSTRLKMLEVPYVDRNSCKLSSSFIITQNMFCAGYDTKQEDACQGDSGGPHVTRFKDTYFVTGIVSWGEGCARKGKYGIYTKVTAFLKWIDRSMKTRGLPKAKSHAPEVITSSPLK
T1 sequence (P00742 41-179 partner limits assumed): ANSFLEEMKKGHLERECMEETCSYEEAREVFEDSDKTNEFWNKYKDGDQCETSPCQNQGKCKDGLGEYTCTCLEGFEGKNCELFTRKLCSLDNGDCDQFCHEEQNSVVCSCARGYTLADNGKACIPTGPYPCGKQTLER

Broadly, the Ki is a measure of affinity in units of concentration, obtained from inhibition or displacement. The low end stands for tighter binding, the high end for weaker binding. Take `CN1CCC(C2CCN(C(=O)[C@H](NC(=O)c3ccc4ccnc(N)c4c3)c3ccccc3)CC2)CC1` [Example 75, 1-Aminoisoquinolin-7-oyl-D-phenylglycine-4,4′-(1′-methyl)bipiperidinamide]: the Ki is 0.008 µM.
As to `N=C(N)c1ccccc1` [benzamidine], the Ki turned out to be 155 µM.

These data come from patent US6420438B1, “1-amino-7-isoquinoline derivatives as serine protease inhibitors” (Tularik Limited, priority 1998, dated 2002).
